The source of these data is ChEMBL document CHEMBL1128773, “Synthesis and pharmacological profile of FCE 28654: A water-soluble and injectable ACAT inhibitor” (Bioorg Med Chem Lett, 1995).

Test [1] concerns the target T1, Acyl-CoA:cholesterol acyltransferase (Oryctolagus cuniculus, UniProt Q95214).
T1 sequence (Q95214 whole entry): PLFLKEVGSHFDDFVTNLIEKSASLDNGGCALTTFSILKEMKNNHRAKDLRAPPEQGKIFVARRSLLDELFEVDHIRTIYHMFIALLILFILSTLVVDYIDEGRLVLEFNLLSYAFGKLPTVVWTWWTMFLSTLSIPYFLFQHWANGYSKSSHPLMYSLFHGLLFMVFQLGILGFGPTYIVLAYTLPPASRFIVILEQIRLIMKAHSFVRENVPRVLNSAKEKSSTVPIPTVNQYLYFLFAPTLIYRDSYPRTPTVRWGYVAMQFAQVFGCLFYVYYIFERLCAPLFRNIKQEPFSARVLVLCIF
Description: Inhibitory activity against acyl-CoA: cholesterol acyltransferase (ACAT) in microsomes from cholesterol-fed rabbit thoracic aorta.

In test [2] the target is T2, Sterol O-acyltransferase 1 (Rattus norvegicus) (UniProt O70536).
T2 sequence (whole entry): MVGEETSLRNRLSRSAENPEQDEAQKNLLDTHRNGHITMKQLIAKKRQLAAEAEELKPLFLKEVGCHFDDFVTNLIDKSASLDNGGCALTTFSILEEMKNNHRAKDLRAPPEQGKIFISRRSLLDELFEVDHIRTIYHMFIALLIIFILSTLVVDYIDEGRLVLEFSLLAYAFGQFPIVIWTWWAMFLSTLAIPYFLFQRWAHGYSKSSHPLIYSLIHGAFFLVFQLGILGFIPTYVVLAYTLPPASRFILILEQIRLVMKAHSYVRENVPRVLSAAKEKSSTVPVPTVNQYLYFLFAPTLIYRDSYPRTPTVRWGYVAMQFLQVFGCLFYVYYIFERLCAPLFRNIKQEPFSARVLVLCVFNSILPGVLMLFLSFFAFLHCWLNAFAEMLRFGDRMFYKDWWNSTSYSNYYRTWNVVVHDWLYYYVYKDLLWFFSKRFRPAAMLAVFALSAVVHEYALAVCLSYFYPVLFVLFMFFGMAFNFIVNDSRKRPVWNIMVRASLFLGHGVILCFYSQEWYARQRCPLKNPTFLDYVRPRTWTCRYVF
Description: (§1) Inhibition of microsomal acyl-CoA: cholesterol acyltransferase in the presence of plasma from rats administered orally with 100 mg/kg of the compound; pmoles [14C]-Cholesteryl oleate formed / mg protein / min incubation. It counts as functional, organism-based. More on the design: dose 100 mg/kg.

The test system of test [3] is Rattus norvegicus. Put plainly: Effect of single oral administration of 2 mg/kg of compound on cholesterol esters of hypercholesterolemic rats. It counts as functional, organism-based. Also noted: dose 2 mg/kg.
A short description of test [4]: Ratio of effect of single iv administration of compound at dose 2 mg/kg on liver free cholesterol/cholesterol esters of hypercholesterolemic rats. The format is functional.
Test [5] in a line: Ratio of effect of single oral administration of 15 mg/kg of compound on liver free cholesterol/cholesterol esters of hypercholesterolemic rats. The format is functional.
Test [6] has as its system Rattus norvegicus. Put plainly: Effect of single oral administration of 15 mg/kg of compound on cholesterol esters of hypercholesterolemic rats. It counts as functional, organism-based. Also noted: dose 15 mg/kg.
The test system of test [7] is Mus musculus. Description: Effect of single oral administration of 10 mg/kg of compound on cholesterol esters of hypercholesterolemic mice. More on the design: dose 10 mg/kg. The format is functional, organism-based.
Test [8] has as its system Mus musculus. Description: Effect of single oral administration of 10 mg/kg of compound on free cholesterol of hypercholesterolemic mice. The format is functional, organism-based. Also noted: dose 10 mg/kg.
Test [9] concerns Rattus norvegicus. Put plainly: Effect of single oral administration of 2 mg/kg of compound on triglycerides of hypercholesterolemic rats. It counts as functional, organism-based. Also noted: dose 2 mg/kg.
Test [10] concerns Rattus norvegicus. Put plainly: Effect of single oral administration of 2 mg/kg of compound on free cholesterol of hypercholesterolemic rats. It counts as functional, organism-based. More on the design: dose 2 mg/kg.
Test [11] deals with Mus musculus. Description: Effect of single oral administration of 10 mg/kg of compound on phospholipids of hypercholesterolemic mice. It counts as functional, organism-based. More on the design: dose 10 mg/kg.
Test [12] deals with T1, Acyl-CoA:cholesterol acyltransferase. Put plainly: Inhibitory activity against acyl-CoA: cholesterol acyltransferase (ACAT) in microsomes from cholesterol-fed rabbit intestinal mucosa.
The subject of test [13] is Rattus norvegicus. Description: Effect of single oral administration of 2 mg/kg of compound on phospholipids of hypercholesterolemic rats. It counts as functional, organism-based. More on the design: dose 2 mg/kg.
Test [14] can be described thus: Ratio of effect of single iv administration of compound at dose 10 mg/kg on liver free cholesterol/cholesterol esters of hypercholesterolemic mice. The format is functional.
Test [15] deals with Rattus norvegicus. Put plainly: Effect of single oral administration of 15 mg/kg of compound on phospholipids of hypercholesterolemic rats. The format is functional, organism-based. More on the design: dose 15 mg/kg.
Test [16] deals with Mus musculus. Description: Effect of single oral administration of 10 mg/kg of compound on triglycerides of hypercholesterolemic mice. The format is functional, organism-based. More on the design: dose 10 mg/kg.
The test system of test [17] is Rattus norvegicus. Put plainly: Effect of single oral administration of 15 mg/kg of compound on free cholesterol of hypercholesterolemic rats. The format is functional, organism-based. More on the design: dose 15 mg/kg.
In test [18] the test system is Rattus norvegicus. Description: Effect of single oral administration of 15 mg/kg of compound on triglycerides of hypercholesterolemic rats. The format is functional, organism-based. Also noted: dose 15 mg/kg.
The target of test [19] is T2, Sterol O-acyltransferase 1 (Rattus norvegicus). The test is described as §1. It counts as organism-based. More on the design: dose 100 mg/kg.

Take `CC(C)c1cccc(C(C)C)c1NC(=O)NCC1(c2ccc(OP(=O)(O)O)cc2)O[C@H](C)[C@@H](C)O1`: the IC50 – broadly, the concentration at which inhibition is half-maximal – in test [1] is 2550 nM; in [12], 1080 nM. For the same molecule, in test [2], the Activity came out at 148. Further, the Plasma lipids was 134 mg/dL in the test on Rattus norvegicus [3]; 73 mg/dL in the test on Rattus norvegicus [6]; 79 mg/dL with Mus musculus [7]; 26 mg/dL with Mus musculus [8]; 126 mg/dL in the test on Rattus norvegicus [9]; 39 mg/dL with Rattus norvegicus [10]. Further, the Plasma lipids with Mus musculus [11] is 142 mg/dL; in the test on Rattus norvegicus [13], 138 mg/dL; in the test with Rattus norvegicus [15] it was 84 mg/dL; in the test with Mus musculus [16] it was 71 mg/dL; in the test on Rattus norvegicus [17], 28 mg/dL; with Rattus norvegicus [18] it was 98 mg/dL. The Ratio in test [4] is given as 0.188; in [5] it was 0.38; in test [14], 0.316.
Take `CC(C)c1cccc(C(C)C)c1NC(=O)NCC1(c2ccccc2)O[C@H](C)[C@@H](C)O1`: the values for the IC50 in [1] and in test [12] were 24.2 nM and 27 nM, respectively. Also, the Plasma lipids in the test with Rattus norvegicus [6] was 57 mg/dL; in the test with Rattus norvegicus [15], 77 mg/dL; in the test with Rattus norvegicus [17], 18 mg/dL; in the test on Rattus norvegicus [18], 76 mg/dL. Moreover, the Activity in [19] turned out to be 286.
Regarding `CC(C)c1cccc(C(C)C)c1NC(=O)NCC1(c2ccc(O)cc2)O[C@H](C)[C@@H](C)O1`, the Plasma lipids was determined as 75 mg/dL in the test with Rattus norvegicus [6], 96 mg/dL in the test on Rattus norvegicus [15], 33 mg/dL with Rattus norvegicus [17] and 126 mg/dL with Rattus norvegicus [18].
